Assay results reported in US9265784B2, “Antineoplastic combinations of 4-anilino-3-cyanoquinolines and capecitabine” (WYETH LLC, priority 2008, dated 2016).
Like-named read-outs stand apart in the source and are kept apart here.

Assays:
Type in all cases: in vivo, human
[1] = Preliminary pharmacokinetic analyses of neratinib after oral administration; settings: for AUC / Cmax: oral daily; for AUC: read-out: Mean steady-state AUC; for Cmax: read-out: Mean steady-state Cmax
Description: The mean accumulation ratio was 1.2 after a 240-mg dose, indicating no significant accumulation of neratinib after repeated daily dose administration at the dose to be used in this proposed trial.
The data indicated a slow distribution of neratinib with a large apparent volume of distribution (Vz/F on day 1: about 3188 to 6181 L) after oral absorption. […] There was moderate to large variability in neratinib t1/2, Cmax, and AUC; coefficients of variation (CVs) generally ranged from 8% to 90%.

[2] = test system: erbB-2-overexpressing advanced or metastatic breast cancer; test: Ongoing phase 2 study of neratinib 240 mg daily oral, efficacy
Protocol: (§1) In an ongoing phase 2 study, neratinib is being administered as daily oral doses of 240 mg in subjects with erbB-2-overexpressing advanced or metastatic breast cancer, who received up to 4 prior cytotoxic chemotherapy treatment regimens, with prior trastuzumab therapy for metastatic or locally advanced disease (≧6 weeks) or with no prior exposure to erbB-2-targeted treatment. Preliminary results were obtained for 124 subjects evaluable for efficacy based on independent assessment and 131 subjects evaluable per investigator assessment. […] Median Progression Free Survival (PFS) for independent (and investigator) assessment was 23 (22), with a 16-week PFS rate of 61% (57%) in subjects who had received prior trastuzumab. For trastuzumab naïve subjects, PFS per independent (and investigator) assessment was 40 (35), with a 16-week PFS rate of 75% (78%).

[3] = Ongoing phase 2 study of neratinib 240 mg daily oral, adverse events
Protocol: as §1
The predominant AE was diarrhea, which was reversible and generally manageable by medication, temporary discontinuation of treatment, or dose reduction. Diarrhea that was considered related to neratinib occurred with a frequency of 94% of the subjects. Of those, grade 3-4 diarrhea was experienced by 25% of the subjects. Other common AEs were nausea (related to neratinib in 30%, grade 3-4 in 2% of the subjects), vomiting (related in 23%, grade 3-4 in 2%), fatigue (related in 20%, grade 3-4 in <2%), and anorexia (related in 16%, grade 3-4 in 4%). […] Presented at the Poster presented at the SABCS, San Antonio, USA].

[4] = human, in vivo, 400 mg (highest dose)
[5] = human, in vivo, 180-mg dose group
[6] = human, in vivo, 240-mg dose group
[7] = human, in vivo, 320-mg dose group
[8] = prior trastuzumab, independent assessment
[9] = prior trastuzumab, investigator assessment
[10] = trastuzumab naïve subjects, independent assessment
[11] = trastuzumab naïve subjects, investigator assessment

CCOc1cc2ncc(C#N)c(Nc3ccc(OCc4ccccn4)c(Cl)c3)c2cc1NC(=O)/C=C/CN(C)C [neratinib, (2E)-N-[4-[[3-chloro-4-[(pyridin-2-yl)methoxy]phenyl]amino]-3-cyano-7-ethoxyquinolin-6-yl]-4-(dimethylamino)but-2-enamide]
mean accumulation ratio ([1]; after a 240-mg dose, repeated daily administration): 1.2 | dose dependence of Cmax and AUC ([1]; after oral administration): increased in a dose-dependent manner | AUC [1, 4]: 1700 ng·h/mL | Cmax [1, 4]: 105 ng/mL | AUC [1, 5]: 975 ng·h/mL | Cmax [1, 5]: 70.1 ng/mL | AUC [1, 6]: 939 ng·h/mL | Cmax [1, 6]: 73.5 ng/mL | AUC [1, 7]: 1330 ng·h/mL | Cmax [1, 7]: 90.4 ng/mL | Vd/F ([1]; human, in vivo, day 1, after oral absorption, read-out: apparent volume of distribution (Vz/F)): 3190 to 6180 L | half-life ([1]; human, in vivo, oral administration, day 1, read-out: mean apparent terminal half-life (t1/2)): 13 to 17 h | absorption ([1]; oral): relatively slow | 16-week PFS rate [2, 8]: 61% | Median Progression Free Survival (PFS) [2, 8]: 23 | 16-week PFS rate [2, 9]: 57% | Median Progression Free Survival (PFS) [2, 9]: 22 | antitumor activity ([2]; subjects with erbB-2-positive advanced breast cancer, 240 mg daily oral): significant antitumor activity | ORR ([2]; subjects with prior trastuzumab containing therapy in the metastatic setting, independently assessed, 240 mg daily oral): 26% | ORR ([2]; subjects with prior trastuzumab containing therapy in the metastatic setting, investigator assessed, 240 mg daily oral): 35% | 16-week PFS rate [2, 10]: 75% | PFS [2, 10]: 40 | ORR ([2]; trastuzumab naïve subjects, independently assessed, 240 mg daily oral): 51% | ORR ([2]; trastuzumab naïve subjects, investigator assessed, 240 mg daily oral): 62% | 16-week PFS rate [2, 11]: 78% | PFS [2, 11]: 35 | Diarrhea considered related to neratinib, frequency of subjects ([3]; 240 mg daily oral): 94% | anorexia grade 3-4, subjects ([3]; 240 mg daily oral): 4% | anorexia related, subjects ([3]; 240 mg daily oral): 16% | fatigue grade 3-4, subjects ([3]; 240 mg daily oral): < 2% | fatigue related, subjects ([3]; 240 mg daily oral): 20% | grade 3-4 diarrhea, subjects ([3]; 240 mg daily oral): 25% | nausea grade 3-4, subjects ([3]; 240 mg daily oral): 2% | nausea related to neratinib, subjects ([3]; 240 mg daily oral): 30% | vomiting grade 3-4, subjects ([3]; 240 mg daily oral): 2% | vomiting related, subjects ([3]; 240 mg daily oral): 23% | tolerability ([3]; daily oral doses of 240 mg): generally well tolerated
